# Measurements: article PMC9692523, “Exposure to (Poly)phenol Metabolites after a Fruit and Vegetable Supplement Intake: A Double-Blind, Cross-Over, Randomized Trial” (Nutrients, 2022)
# What was measured:
# [1] = Plasma pharmacokinetics of phenolic metabolites after one 450 mg capsule of the supplement (UHPLC-ESI-MS/MS); format: in vivo, human; settings: for Cmax / Tmax / Tpres (time of presence of metabolites in circulation): n = 10, mean ± SEM; for Tpres (time of presence of metabolites in circulation): interval between first and last appearance; for AUC0-24: supplemented volunteers (n = 10), 450 mg capsule, mean ± SEM
# Protocol: (§1) This study was designed as a 3-week randomized, double-blind, cross-over clinical trial. Eligible participants were randomized using simple block randomization of 1:1. Once enrolled, subjects received either one 450 mg capsule of the test supplement or one 450 mg capsule of placebo on the first day of the study (Phase I: D1). After three days of sampling, volunteers started a wash-out period of 1 week and were then enrolled for the second test Phase with ingestion of the opposite supplement (Phase II: D1) (Figure 1). The placebo product was 100% maltodextrin, which was (poly)phenol-free.
# On the day of the test (D1), volunteers visited the Research Center after an overnight fast. Blood was collected at T0 to determine baseline levels of plasma phenolic metabolites. Then, volunteers were invited to take the 450 mg capsule of the supplement or the placebo with 250 mL of still water (Figure 2). Additional blood samples were then collected at 1 h (D1, T1), 2 h (D1, T2), 3 h (D1, T3), 4 h (D1, T4), 5 h (D1, T5), 6 h (D1, T6), 8 h (D1, T8), 10 h (D1, T10) and 24 h (D2, T24) after capsule intake. Blood was taken from the basilica vein and centrifuged at 3000 rpm for 10 min at 4 °C. Plasma was immediately extracted and frozen at −80 °C for further analysis.
# Plasma samples were then extracted using a solid phase extraction (SPE) method, as previously reported by Castello and colleagues. Briefly, 350 µL of plasma samples was diluted (1:1) with phosphoric acid 4% (v/v). After plate activation, 600 µL of the diluted plasma samples was loaded on a 96 well µ-SPE HLB (Oasis® HLB µElution Plate 30 µm, Waters, Milford, Massachusetts, MA, USA). Samples were washed with 200 µL of water and 200 µL of 0.2% (v/v) acetic acid. Finally, samples were eluted with 60 µL of methanol for UHPLC-ESI-MS/MS analysis.
# (§2) Plasma and urine samples were analyzed by a UHPLC DIONEX Ultimate 3000 equipped with a triple quadrupole TSQ Vantage (Thermo Fisher Scientific Inc) fitted with a heated ESI (H-ESI) (Thermo Fisher Scientific Inc) probe, as previously reported. Separations were carried out by means of a Kinetex EVO C18 (100 × 2.1 mm) column, 2.6 µm particle size (Phenomenex, Torrance, CA, USA), installed with a pre-column (Phenomenex). Mobile phase A was 0.2% formic acid in water, and mobile phase B was acetonitrile containing 0.2% formic acid. The gradient started with 5% B, and isocratic conditions were maintained for 0.5 min, reaching 95% B after 6.5 min, followed by 1 min at 95%. The starting gradient was then immediately re-established and maintained for 5 min to re-equilibrate the column. The flow rate was 0.4 mL/min, the injection volume was 5 µL and the column temperature was set at 40 °C.
# (§3) The applied MS method consisted of the selective determination of each target precursor ion by the acquisition of characteristic product ion in selective reaction monitoring (SRM) mode (Supplemental Table S2). For all the analyses, the spray voltage was set at 3 kV, the vaporizer temperature at 300 °C and the capillary temperature operated at 270 °C. The sheath gas flow was 50 units, and auxiliary gas pressure was set to 10 units. Ultra-high purity argon gas was used for collision-induced dissociation (CID). The S-lens values were defined for each compound based on infusion parameter optimization. Conversely, for those compounds not available for infusion, the S-lens values were set using the values obtained for the chemically closest available standards. Quantification was performed with calibration curves of standards when available or using the most structurally similar compound. Data processing was performed using Xcalibur software (Thermo Scientific Inc., San Jose, CA, USA).
# All data were expressed as mean values ± standard deviation (SD) and mean values ± standard error to the mean (SEM) for metabolites in blood and urine samples. […]
# [2] = Urinary excretion of phenolic metabolites over 48 h after one 450 mg capsule of the supplement (UHPLC-ESI-MS/MS); format: in vivo, human; settings: for Urinary excretion 0–3 (h) / Urinary excretion 3–6 (h) / Urinary excretion 6–10 (h) / Urinary excretion 10–14 (h) / Urinary excretion 14–24 (h) / Urinary excretion 24–32 (h) / Urinary excretion Total (0–48 h) / Urinary excretion 0 (h) / Urinary excretion 32–48 (h): urine, n = 10, mean ± SEM; for Urinary excretion 0 (h): baseline (day before)
# Protocol: as §1
# Urine samples were collected the day before (baseline) and during the 48 h period following the supplementation (T0-T3, T3-T6, T6-T10, T10-T14, T14-T24, T24-T32 and T32-T48) (Figure 2). Urine volumes at each collection period were registered, and samples were aliquoted and stored at −80 °C until further processing.
# Then, urine samples were prepared as previously reported by Brindani and colleagues. Briefly, urine samples were defrosted, vortexed, diluted in 0.1% formic acid in water (1:4, v/v) and centrifuged at 12,000 rpm for 5 min. Finally, urine samples were filtered (0.45 µm nylon filter) prior to UHPLC-ESI-MS/MS analysis.
# as §2, §3
# All data were expressed as mean values ± standard deviation (SD) and mean values ± standard error to the mean (SEM) for metabolites in blood and urine samples. PKSolver add-on program in Microsoft Excel was used to determine pharmacokinetic parameters of blood phenolic metabolites, including time to reach the maximum plasma concentration (Tmax, h), maximum plasma concentration (Cmax, nmol/L), area under the curve (AUC0-24, nmol/L·h), and time of presence of metabolites in circulation (Tpres, h). Tpres was calculated by taking the time interval between the first appearance and the last appearance of the considered metabolite. Coefficient of variation (CV) was evaluated for each metabolite and multivariate principal component analysis (PCA) was applied to explore the inter-individual variation in the urinary metabolites among the participants. […]
Cmax [1] [nM],Tmax [1] [h],Tpres (time of presence of metabolites in circulation) [1] [h],AUC0-24 [1] [µM·h],Time of maximum (peak) urinary excretion ([2]; collection interval post-consumption) [h],Urinary excretion 0–3 (h) [2] [µg],Urinary excretion 3–6 (h) [2] [µg],Urinary excretion 6–10 (h) [2] [µg],Urinary excretion 10–14 (h) [2] [µg],Urinary excretion 14–24 (h) [2] [µg],Urinary excretion 24–32 (h) [2] [µg],Urinary excretion Total (0–48 h) [2] [µg],Urinary excretion 0 (h) [2] [µg],Urinary excretion 32–48 (h) [2] [µg],SMILES
24.9 ± 5.63,1.45 ± 0.32,8.45 ± 2.19,0.05092 ± 0.00585,3 to 6,53.75 ± 15.51,69.04 ± 13.20,38.02 ± 8.17,10.90 ± 3.90,10.23 ± 3.71,0.75 ± 0.75,182.69 ± 19.99,–,–,O=C(O)C1OC(Oc2cc(CCO)ccc2O)C(O)C(O)C1O (centres unmarked) [compound 33]
443 ± 99.3,7.13 ± 0.77,7.50 ± 2.38,1.55429 ± 0.64433,–,85.67 ± 85.67,–,–,287.94 ± 287.94,262.06 ± 138.26,–,1408.57 ± 544.97,96.20 ± 96.20,676.70 ± 383.40,O=C(O)CCc1cccc(O)c1.O=C(O)CCc1cccc(O)c1 [compound 40]
18.2 ± 11.3,4.56 ± 1.13,9.06 ± 2.56,0.02741 ± 0.01121,–,101.08 ± 52.47,103.59 ± 54.34,41.08 ± 16.51,56.67 ± 24.78,389.70 ± 95.00,208.69 ± 73.47,1217.76 ± 256.95,27.49 ± 27.49,289.45 ± 118.16,O=C(O)CCc1ccc(O)c(OS(=O)(=O)O)c1 [compound 41]
